# Data taken from PubChem BioAssay AID2060352 (Molecular Pharmacology Branch, DTP, NCI, 2025).
# System: 616215-338-R-J1-PDC spheroid with HUVEC/MSC, viability
# Assay: Anticancer human tumor 616215-338-R-J1-PDC patient-derived colon adenocarcinoma cell line growth inhibition [TAK]
# Settings: for IC50: curve of first compound; for viability, T/C: stronger effect = lower value
# Excerpt: Combinatorial screen of targeted agents with TAK-243 and ipatasertib in multi-cell type tumor spheroids
# A high-throughput screen of multi-cell type tumor spheroids was designed to identify active combinations of targeted small molecules and TAK-243 or ipatasertib. Complex spheroids include a stromal component modeled by human endothelial cells (HUVEC) and fibroblasts modeled by human mesenchymal stem cells (MSCs). The concentration ranges selected for each drug and investigational agent were based upon clinically achievable concentrations if the clinical Cmax of the agent was known.
# Compounds. The drugs and investigational agents: TAK-243 (785004), ipatasertib (767898), everolimus (733504), selumetinib (741078), bortezomib (756655), trametinib (758246), ixazomib (758254), vemurafenib (761431), dabrafenib (764134), sapanisertib (764658), alpelisib (765974), and copanlisib (816437), were obtained from the National Cancer Institute (NCI) Developmental Therapeutics Program Chemical Repository. The FDA-approved anticancer drug set is available from the NCI Developmental Therapeutics Program. […] The stock solutions were prepared in dimethyl sulfoxide (DMSO, Sigma-Aldrich, St. Louis, MO, cat. D2650) at 800-fold the tested concentration and stored at -70 degrees C prior to their use. All drugs and investigational agents were tested over a range starting from a high concentration at or near the clinical Cmax and decreasing in half-log increments. If the clinical Cmax for an agent had not been determined, the highest concentration tested was 10 microM.
# NCI60 Cell Culture. NCI60 cell lines were obtained from the NCI Developmental Therapeutics Program Tumor Repository. For each lot of cells, the Repository performed Applied Biosystems AmpFLSTR Identifiler testing with PCR amplification to confirm consistency with the published Identifier STR profile for each cell line. Cells were kept in continuous culture for no more than 20 passages. The optimal seeding densities for each of the cell lines at each time point assessed were determined prior to performing the concentration response studies. Briefly, the NCI60 human tumor lines were grown as monolayers in RPMI 1640 medium supplemented with 10% FBS and 2 mmol/L L-glutamine.
# An additional 2 lines were from the NCI60 cell line panel including melanomas, MALME-3M and SK-MEL-2. Pooled donor human umbilical vein endothelial cells (HUVEC, Lonza, cat. CC-2519) and human mesenchymal stem cells (hMSC, Lonza, cat. PT-2501) were purchased from Lonza (Walkersville, MD).
# PDMR cell lines were grown in complete medium (DC medium): Dulbecco's modified Eagle's medium (DMEM)/F12 supplemented with 5% fetal bovine serum (FBS), 2 mM L-glutamine, 100 U/mL penicillin and 100 µg/ml streptomycin, 0.4 µg/ml hydrocortisone, 10 ng/ml epidermal growth factor (EGF) recombinant human protein, 24 µg/mL adenine, and 0.1 mg/mL primocin. During culture from frozen stock vials, PDMR cells were cultured in the same medium containing 10 µM Y-27632 (see Table 3). The PDCs were cultured in complete DMEM/F12 media without 10 microM Y-27632 dihydrochloride for at least two passages prior to the screen. The pooled donor HUVEC and hMSC were cultured in endothelial cell growth medium 2 (PromoCell, Heidelberg, Germany, cat. C-22011) and mesenchymal stem cell growth medium 2 (PromoCell, cat. C-28009), respectively. For all experiments, HUVEC and hMSC were used at passages </=5.
# For the pre-screen, cell seeding densities were determined from a titration spanning the range from 5,000 to 313 cells per well. The mct-spheroids including 60% malignant cells, 25% HUVEC and 15% MSC dispensed as a mixture into U-bottom Ultra-Low Attachment 384-well plates (Corning, NY)
# High-throughput Drug Combination Screening.
# Prior to their inoculation into 384-well plates, malignant cells, HUVEC, and hMSC were removed from T flasks using TrypLE express (Thermo Fisher Scientific, cat. 12605036) and harvested by centrifugation for 5 min at 233 x g. […]
# [1] = second compound 0.3 µM, first compound 0.0316 µM
# [2] = second compound 0.3 µM, first compound 0.1 µM
# [3] = second compound 0.3 µM, first compound 0.316 µM
# [4] = second compound 0.3 µM, first compound 1 µM
# [5] = second compound 0.949 µM, first compound 0.0316 µM
# [6] = second compound 0.949 µM, first compound 0.1 µM
# [7] = second compound 0.949 µM, first compound 0.316 µM
# [8] = second compound 0.949 µM, first compound 1 µM
# [9] = second compound 3 µM, first compound 0.0316 µM
# [10] = second compound 3 µM, first compound 0.1 µM
# [11] = second compound 3 µM, first compound 0.316 µM
# [12] = second compound 3 µM, first compound 1 µM
# [13] = second compound 9.49 µM, first compound 0.0316 µM
# [14] = second compound 9.49 µM, first compound 0.1 µM
# [15] = second compound 9.49 µM, first compound 0.316 µM
# [16] = second compound 9.49 µM, first compound 1 µM
# [17] = second compound 30 µM, first compound 0.0316 µM
# [18] = second compound 30 µM, first compound 0.1 µM
# [19] = second compound 30 µM, first compound 0.316 µM
# [20] = second compound 30 µM, first compound 1 µM
# 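Also: spheroids exposed to drugs for 7 days before readout.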
smiles,measurement,setting,value
COc1c(OCCCN2CCOCC2)ccc2c3n(c(=NC(=O)c4cnc(N)nc4)nc12)CCN3 + CC(C)NCC(C(=O)N1CCN(c2ncnc3c2C(C)CC3O)CC1)c1ccc(Cl)cc1,IC50,second compound 0.3 µM,99.4 nM
same,IC50,second compound 0.949 µM,73.1 nM
same,IC50,second compound 3 µM,9.23 nM
same,IC50,second compound 9.49 µM,< 3.16 nM
same,IC50,second compound 30 µM,< 3.16 nM
same,"viability, T/C","second compound 0.3 µM, first compound 0.00316 µM",101%
same,"viability, T/C","second compound 0.3 µM, first compound 0.01 µM",113%
same,"viability, T/C",[1],110%
same,"viability, T/C",[2],49.7%
same,"viability, T/C",[3],27.2%
same,"viability, T/C",[4],17.6%
same,"viability, T/C","second compound 0.949 µM, first compound 0.00316 µM",113%
same,"viability, T/C","second compound 0.949 µM, first compound 0.01 µM",117%
same,"viability, T/C",[5],83.3%
same,"viability, T/C",[6],37.4%
same,"viability, T/C",[7],24.4%
same,"viability, T/C",[8],15.8%
same,"viability, T/C","second compound 3 µM, first compound 0.00316 µM",64.3%
same,"viability, T/C","second compound 3 µM, first compound 0.01 µM",49.7%
same,"viability, T/C",[9],33.9%
same,"viability, T/C",[10],26.4%
same,"viability, T/C",[11],19.1%
same,"viability, T/C",[12],15.6%
same,"viability, T/C","second compound 9.49 µM, first compound 0.00316 µM",23.5%
same,"viability, T/C","second compound 9.49 µM, first compound 0.01 µM",31.1%
same,"viability, T/C",[13],20.9%
same,"viability, T/C",[14],14.4%
same,"viability, T/C",[15],12.7%
same,"viability, T/C",[16],14.9%
same,"viability, T/C","second compound 30 µM, first compound 0.00316 µM",11.7%
same,"viability, T/C","second compound 30 µM, first compound 0.01 µM",12.8%
same,"viability, T/C",[17],9.99%
same,"viability, T/C",[18],9.6%
same,"viability, T/C",[19],8.41%
same,"viability, T/C",[20],7.42%
CC(C)(C)c1nc(-c2cccc(NS(=O)(=O)c3c(F)cccc3F)c2F)c(-c2ccnc(N)n2)s1 + CC(C)NCC(C(=O)N1CCN(c2ncnc3c2C(C)CC3O)CC1)c1ccc(Cl)cc1,IC50,second compound 0.3 µM,5380 nM
same,IC50,second compound 0.949 µM,834 nM
same,IC50,second compound 3 µM,182 nM
same,IC50,second compound 9.49 µM,< 31.6 nM
same,IC50,second compound 30 µM,< 31.6 nM
same,"viability, T/C",[1],130%
same,"viability, T/C",[2],140%
same,"viability, T/C",[3],156%
same,"viability, T/C",[4],138%
same,"viability, T/C","second compound 0.3 µM, first compound 3.16 µM",77.8%
same,"viability, T/C","second compound 0.3 µM, first compound 10 µM",17.5%
same,"viability, T/C",[5],141%
same,"viability, T/C",[6],132%
same,"viability, T/C",[7],87%
same,"viability, T/C",[8],43.1%
same,"viability, T/C","second compound 0.949 µM, first compound 3.16 µM",22%
same,"viability, T/C","second compound 0.949 µM, first compound 10 µM",10.1%
same,"viability, T/C",[9],63.5%
same,"viability, T/C",[10],69%
same,"viability, T/C",[11],35.1%
same,"viability, T/C",[12],16.8%
same,"viability, T/C","second compound 3 µM, first compound 3.16 µM",10.3%
same,"viability, T/C","second compound 3 µM, first compound 10 µM",7.4%
same,"viability, T/C",[13],21.2%
same,"viability, T/C",[14],19.9%
same,"viability, T/C",[15],15.2%
same,"viability, T/C",[16],8.91%
same,"viability, T/C","second compound 9.49 µM, first compound 3.16 µM",5.79%
same,"viability, T/C","second compound 9.49 µM, first compound 10 µM",6.27%
same,"viability, T/C",[17],8.84%
same,"viability, T/C",[18],10.3%
same,"viability, T/C",[19],7.86%
same,"viability, T/C",[20],6.37%
same,"viability, T/C","second compound 30 µM, first compound 3.16 µM",3.65%
same,"viability, T/C","second compound 30 µM, first compound 10 µM",3.34%
